According to ChEMBL document CHEMBL3046473, “Effect on Insecticidal Activity of Substituents at the 1,4-Benzodioxanyl Moiety of Haedoxan” (1992):

Columns and labels:
Musca domestica [1] = assay: Insecticidal activity against 3-day old Musca domestica (house fly) administered topically measured after 24 hr; assay type: functional
Musca domestica [2] = assay: Insecticidal activity against 3-day old Musca domestica (house fly) administered topically measured after 24 hr relative to (+)-haedoxan A; assay type: functional

| Structure (SMILES) | LD50 (Musca domestica [1]) [µg] | Ratio (Musca domestica [2]) |
| --- | --- | --- |
| COc1cc2c(cc1[C@H]1OC[C@]3(O)[C@@H](Oc4c(OC)cccc4OC)OC[C@H]13)OCCO2 | >10 |  |
| COc1cc2c(cc1[C@H]1OC[C@]3(O)[C@@H](Oc4c(OC)cccc4OC)OC[C@H]13)OC(CCl)CO2 (mixture of isomers) | 5 | 5e-05 |
| COc1cc2c(cc1[C@H]1OC[C@]3(O)[C@@H](Oc4c(OC)cccc4OC)OC[C@H]13)OC(CO)CO2 (mixture of isomers) | >10 |  |
| COc1cc2c(cc1[C@H]1OC[C@]3(O)[C@@H](Oc4c(OC)cccc4OC)OC[C@H]13)OC(COC(C)(C)C)CO2 (mixture of isomers) | 1 | 0.0003 |
| COc1cc2c(cc1[C@H]1OC[C@]3(O)[C@@H](Oc4c(OC)cccc4OC)OC[C@H]13)OC(COCc1ccccc1)CO2 (mixture of isomers) | >10 |  |
| COCC1COc2cc(OC)c([C@H]3OC[C@]4(O)[C@@H](Oc5c(OC)cccc5OC)OC[C@H]34)cc2O1 (mixture of isomers) | 1 | 0.0003 |
| COc1cc2c(cc1[C@H]1OC[C@]3(O)[C@@H](Oc4c(OC)cccc4OC)OC[C@H]13)OCC(c1ccc3c(c1)OCO3)O2 (mixture of isomers) | 1 | 0.0003 |
| COC[C@H]1Oc2cc([C@H]3OC[C@]4(O)[C@@H](Oc5c(OC)cc6c(c5OC)OCO6)OC[C@H]34)c(OC)cc2O[C@@H]1c1ccc2c(c1)OCO2 [(+)-HAEDOXAN A] | 0.00025 |  |
